From PubChem BioAssay AID1645848
Converted amounts (≈) assume the structure as drawn.

Conditions: buffer; pH 7.4; 6.0 h; 150.0 µM

Which solubility kinetic does the source give for CNc1oc(-c2ccccc2-c2ccccc2)nc1C#N here?
The solubility kinetic was 1.21 µg/mL (≈ 4.39 µM).

For O=S(=O)(Nc1ccc(-c2ccccc2)cc1)c1ccc(NCc2cccc(Cl)c2O)cc1, which solubility kinetic is on record?
The solubility kinetic was < 1 µg/mL.

Which solubility kinetic does the source give for Cc1ccc(-n2nc(C)c3c(-c4ccc(O)c(O)c4)c(C#N)c(N)nc32)cc1C here?
Its solubility kinetic is 1.81 µg/mL (≈ 4.7 µM).

Which solubility kinetic does the source give for CCc1nnc(NC(=O)c2nc(S(=O)(=O)Cc3ccc(C)cc3)ncc2Cl)s1 here?
The solubility kinetic was > 65 µg/mL.

For Cc1cccc(-n2c(C)cc(C=C(C#N)C#N)c2C)c1, which solubility kinetic is on record?
Its solubility kinetic is < 1 µg/mL.

For Nc1ncnc(N2CCc3ccccc32)c1[N+](=O)[O-], which solubility kinetic is on record?
Its solubility kinetic is < 1 µg/mL.

With Fc1ccc(Nc2nc(-c3ccncc3)nc3ccccc23)cc1F as the molecule, how does the solubility kinetic read?
The solubility kinetic was < 1 µg/mL.

Which solubility kinetic does the source give for CCn1c(C(=O)NCCc2ccc(OC)cc2)cc2sccc21 here?
The solubility kinetic was 2.08 µg/mL (≈ 6.34 µM).

Which solubility kinetic does the source give for Cc1c(-c2cccc3c(CCCOc4cccc5ccccc45)c(C(=O)O)n(Cc4cccnc4)c23)c(COc2ccc(N3CCN([S+](=O)([O-])N(C)C)CC3)cc2)nn1C here?
Its solubility kinetic is < 1 µg/mL.

Which solubility kinetic does the source give for CCCNC(=O)c1ccc2c(c1)ncn2-c1cc(C)cc(C)c1 here?
The solubility kinetic was < 1 µg/mL.

Which solubility kinetic does the source give for CN1CCN(C(c2ccccc2)c2ccccc2)CC1 here?
The solubility kinetic was > 39 µg/mL.

Which solubility kinetic does the source give for Cc1cnc(N2CCC(C(N)=O)CC2)nc1-c1cccc(N(C)C)c1 here?
Its solubility kinetic is > 50 µg/mL.

For Cc1cc(C)nc(NC(=S)N2CCN(c3ccc(Cl)cc3[N+](=O)[O-])CC2)c1, which solubility kinetic is on record?
The solubility kinetic was 3.08 µg/mL (≈ 7.59 µM).

Which solubility kinetic does the source give for O=C(c1ccncc1)N1CCC2(CCCN(C(c3ccccc3)c3ccccc3)C2)CC1 here?
The solubility kinetic was < 1 µg/mL.

With Clc1ccc(C2(c3ccc(-c4cn[nH]c4)cc3)CCNCC2)cc1 as the molecule, how does the solubility kinetic read?
Its solubility kinetic is > 50 µg/mL.

For O=C(c1csnn1)N1CCC2(CCCN(C(c3ccccc3)c3ccccc3)C2)CC1, which solubility kinetic is on record?
The solubility kinetic was < 1 µg/mL.

With COc1ccc(-c2nc(CS(=O)CC(=O)N3CCC4(CC3)OCCO4)c(C)o2)cc1 (stereo not drawn) as the molecule, how does the solubility kinetic read?
The solubility kinetic was > 64 µg/mL.

With NC(=O)c1cnc(N[C@@H]2CCCC[C@@H]2N)nc1Nc1cccc(-n2nccn2)c1 as the molecule, how does the solubility kinetic read?
Its solubility kinetic is > 39 µg/mL.

For NC(=O)C1CCN(c2nc(-c3ccc(N)cc3)cs2)CC1, which solubility kinetic is on record?
The solubility kinetic was > 45 µg/mL.

For Cc1nn2c(c1-c1ccccc1Oc1ccccc1)N(Cc1ccccc1O)CCC2, which solubility kinetic is on record?
The solubility kinetic was 13.9 µg/mL (≈ 33.8 µM).

With NC1CCN(c2nc(-c3ccc(Br)cc3)cs2)CC1 as the molecule, how does the solubility kinetic read?
The solubility kinetic was 8.9 µg/mL (≈ 26.3 µM).

Which solubility kinetic does the source give for Cc1n[nH]c(C)c1CCc1nc2c3ccccc3nc(SCC(=O)Nc3ccc(F)cc3)n2n1 here?
Its solubility kinetic is < 1 µg/mL.

Which solubility kinetic does the source give for CN(C)c1cccc(-c2cnc(N3CCC(C(N)=O)CC3)nc2)c1 here?
Its solubility kinetic is 34.9 µg/mL (≈ 107 µM).

Which solubility kinetic does the source give for Cc1ccc(S(=O)(=O)Nc2cnccc2C(=O)Nc2ccc(N3CCOCC3)cc2)cc1 here?
The solubility kinetic was > 67 µg/mL.

For CNc1sc(-c2cccc3ccccc23)nc1C#N, which solubility kinetic is on record?
The solubility kinetic was < 1 µg/mL.

Which solubility kinetic does the source give for CCn1cc(C(=O)N2CCN(c3cccc(Cl)c3)CC2)c2cc(OC)c(OC)cc2c1=O here?
The solubility kinetic was 3.32 µg/mL (≈ 7.27 µM).

For O=C(Nc1nc(-c2ccccc2)cs1)c1ccncc1NS(=O)(=O)c1ccc2c(c1)CCC2, which solubility kinetic is on record?
Its solubility kinetic is 5.8 µg/mL (≈ 12.2 µM).

For CNc1oc(-c2ccc(-c3ccccc3)cc2)nc1C#N, which solubility kinetic is on record?
Its solubility kinetic is < 1 µg/mL.

For Cc1ccccc1C(=O)N1CCc2cc(-c3nc(NC(=O)CC4CCCCC4)sc3C)ccc21, which solubility kinetic is on record?
Its solubility kinetic is < 1 µg/mL.

For CC(C)(O)/C=C\C(=O)[C@](C)(O)[C@H]1[C@H](O)C[C@]2(C)[C@@H]3CC=C4[C@@H](C=C(O)C(=O)C4(C)C)[C@]3(C)C(=O)C[C@@]12C, which solubility kinetic is on record?
The solubility kinetic was > 51 µg/mL.

With Cc1nc2nc(NC(=O)c3ccc(C(C)(C)C)cc3)[nH]n2c(=O)c1Cl as the molecule, how does the solubility kinetic read?
Its solubility kinetic is 14.7 µg/mL (≈ 40.8 µM).

Which solubility kinetic does the source give for O=C(Nc1nc(-c2ccc(F)cc2)cs1)c1ccncc1NS(=O)(=O)c1ccc(F)cc1 here?
The solubility kinetic was 30.2 µg/mL (≈ 63.9 µM).

With CCOC(=O)c1nc(Nc2ccc(N3CCC(C)CC3)cc2)c2ccccc2n1 as the molecule, how does the solubility kinetic read?
The solubility kinetic was 2.18 µg/mL (≈ 5.59 µM).

With CCOC(=O)c1ccc2c(c1)c(C(C)=O)c(C)n2-c1ccc(OC)cc1 as the molecule, how does the solubility kinetic read?
The solubility kinetic was < 1 µg/mL.

With Cc1ccc(S(=O)(=O)Nc2cnccc2C(=O)Nc2nc(-c3ccc(F)cc3)cs2)cc1 as the molecule, how does the solubility kinetic read?
Its solubility kinetic is < 1 µg/mL.

With COc1cc(NC(=O)c2cc(-c3ccccc3O)no2)cc(OC)c1OC as the molecule, how does the solubility kinetic read?
The solubility kinetic was 1.09 µg/mL (≈ 2.93 µM).

With COc1ccc2[nH]cc(CCNC(=O)c3cnn(-c4ccc(C)cc4)c3C3CCN(C(=O)OC(C)(C)C)CC3)c2c1 as the molecule, how does the solubility kinetic read?
The solubility kinetic was 1.56 µg/mL (≈ 2.8 µM).

With NC(=O)C1CCN(c2ncc(Br)cn2)CC1 as the molecule, how does the solubility kinetic read?
The solubility kinetic was > 42 µg/mL.

With Cc1ccc(S(=O)(=O)Nc2ccc(Br)cc2C(=O)Nc2nc(-c3ccccc3)cs2)cc1 as the molecule, how does the solubility kinetic read?
The solubility kinetic was < 1 µg/mL.

With CCOP(=O)(Cc1ccc(C(=O)Nc2ccc(Br)cc2C#N)cc1)OCC as the molecule, how does the solubility kinetic read?
The solubility kinetic was 14.9 µg/mL (≈ 33.1 µM).

Which solubility kinetic does the source give for CC(=O)NCc1ccc(-c2csc(Nc3cc(C)cc(C)c3)n2)o1 here?
Its solubility kinetic is 1.14 µg/mL (≈ 3.33 µM).

For CC(=O)Nc1cccc(Nc2nc3ccccc3n3c(C)nnc23)c1, which solubility kinetic is on record?
Its solubility kinetic is < 1 µg/mL.

Which solubility kinetic does the source give for O=C(c1cnc(N2CCCCC2)c2ccccc12)N1CCN(c2ccccn2)CC1 here?
The solubility kinetic was > 59 µg/mL.

Which solubility kinetic does the source give for N#Cc1cccc(Nc2ncc(-c3cccc4ccccc34)o2)c1 here?
The solubility kinetic was < 1 µg/mL.

For Cc1cc(Cl)ccc1COc1ccnn1-c1cc(C(=O)O)ccn1, which solubility kinetic is on record?
Its solubility kinetic is > 51 µg/mL.

With CCOC(=O)C1CCN(c2ncc(-c3ccc4c(c3)OCCCO4)s2)CC1 as the molecule, how does the solubility kinetic read?
Its solubility kinetic is < 1 µg/mL.

Which solubility kinetic does the source give for O=C1Nc2ccccc2/C1=C/c1cc(Cl)c(O)c(Cl)c1 here?
Its solubility kinetic is > 45 µg/mL.

Which solubility kinetic does the source give for CC1=C[C@@H](CN2C(=O)C(C)=C(C)C2=O)[C@H](C(C)C)C[C@H]1Cc1nc2c(C)cccc2[nH]1 here?
Its solubility kinetic is 3.65 µg/mL (≈ 8.7 µM).
